Data as given in US8765799B2, “Streptospirole derivatives” (Sanofi, priority 2008, dated 2014).
Converted amounts (≈) assume the structure as drawn.

What was measured:
[1] = test system: M. smegmatis (ATCC 607); test: Broth microdilution IC50 determination, M. smegmatis; type: cell-based, Mycobacterium smegmatis; details: Mycolicibacterium smegmatis, ATCC607, assay mode Lum. (ATP level), 48 h incubation
Source text: (§1) A test which is based on determining the intracellular concentration of ATP is employed for measuring the bacterial viability. It relies on the fact that intact living bacteria have higher intra-cellular ATP levels than bacterial cells which are damaged by the action of antimicrobials. The formulation of the reagent supports bacterial cell lysis and ATP is quantified luminometrically by a luciferin/luciferase reaction. The compounds of the formula (I) are used in a test as further outlined in Examples section in a single dose of 0.125-64μg/ml and a dose dependency is given as a IC50 value in Table 6. This Example describes the standard broth dilution method-microdilution used to determine the in vitro susceptibility of bacteria growing aerobically according to NCCLS M7-A7. The IC50 value of the compound to be tested is calculated as the inhibitory concentration of 50% at which 50% visible turbidity or the ATP level is inhibited. Compound stock solutions were prepared at concentrations of at least 1000μg/ml with methanol. After testing, the stock solution is aliquoted and stored at −80° C. Nystatin was dissolved in DMSO and then further dissolved in the respective culture medium. For every test strain following controls on each 384 well clear-transparent microtitration plate are needed: • drug-free growth control, • sterile control, and • Ciprofloxacin and Nystatin as reference compounds. For Mycobacterium smegmatis a special 384 well white microtitration plate was used. For an IC50 determination at least ten or twenty serial dilutions (geometrical dilution with factor 2) were prepared. [table] […] The exact colony number of each strain was determined by a surface culture method. […] Reading: The reading of the grown wells was done by means of a photometer for microtitration plates at 590 nm by absorbance mode. For Mycobacterium smegmatis the microtitration plates were measured by luminescence mode after incubation with 20μl BacTiter-Glo™/well for 5 minutes at room temperature protected from light. Evaluation: The IC50 values were determined in XLfit 4, model function 205.

[2] = test system: S. aureus (ATCC 29213); test: Broth microdilution IC50 determination, S. aureus ATCC 29213; type: cell-based; details: Staphylococcus aureus, ATCC29213, assay mode Abs. (590 nm), 20 h incubation
Protocol: as §1, with “The” for “A test which is based on determining the intracellular concentration of ATP is employed for measuring the bacterial viability. It relies on the fact that intact living bacteria have higher intra-cellular ATP levels than bacterial cells which are damaged by the action of antimicrobials. The formulation of the reagent supports bacterial cell lysis and ATP is quantified luminometrically by a luciferin/luciferase reaction. The”, “For” for “For Mycobacterium smegmatis a special 384 well white microtitration plate was used. For”, “[table] The usual test concentrations range from 64 to 0.125μg/ml or 64 to 0.0001μg/ml for strong inhibition. At the specification of the concentration the inoculation volume has to be considered. The whole test volume (compound solution and inoculum) was prepared with 40μl and accordingly for Mycobacterium smegmatis 20μl. The serial dilutions with Ciprofloxacin and Nystatin were prepared in special 384 well clear-transparent microtitration plate and were transferred in each 384 well microtitration plate before inoculation.” for “[table]”

[3] = test system: S. aureus (ATCC 33592); test: Broth microdilution IC50 determination, S. aureus ATCC 33592; type: cell-based; details: Staphylococcus aureus, ATCC33592, assay mode Abs. (590 nm)
Protocol: as §1, with “The” for “A test which is based on determining the intracellular concentration of ATP is employed for measuring the bacterial viability. It relies on the fact that intact living bacteria have higher intra-cellular ATP levels than bacterial cells which are damaged by the action of antimicrobials. The formulation of the reagent supports bacterial cell lysis and ATP is quantified luminometrically by a luciferin/luciferase reaction. The”, “For” for “For Mycobacterium smegmatis a special 384 well white microtitration plate was used. For”, “The usual test concentrations range from 64 to 0.125μg/ml or 64 to 0.0001μg/ml for strong inhibition. At the specification of the concentration the inoculation volume has to be considered. The whole test volume (compound solution and inoculum) was prepared with 40μl and accordingly for Mycobacterium smegmatis 20μl. The serial dilutions with Ciprofloxacin and Nystatin were prepared in special 384 well clear-transparent microtitration plate and were transferred in each 384 well microtitration plate before inoculation.” for “[table]”

[4] = test system: E. faecalis (ATCC 29212); test: Broth microdilution IC50 determination, E. faecalis; type: cell-based; details: Enterococcus faecalis, ATCC29212, assay mode Abs. (590 nm), 20 h incubation
Protocol: as §1, with “The” for “A test which is based on determining the intracellular concentration of ATP is employed for measuring the bacterial viability. It relies on the fact that intact living bacteria have higher intra-cellular ATP levels than bacterial cells which are damaged by the action of antimicrobials. The formulation of the reagent supports bacterial cell lysis and ATP is quantified luminometrically by a luciferin/luciferase reaction. The”, “For” for “For Mycobacterium smegmatis a special 384 well white microtitration plate was used. For”, “[table] The usual test concentrations range from 64 to 0.125μg/ml or 64 to 0.0001μg/ml for strong inhibition. At the specification of the concentration the inoculation volume has to be considered. The whole test volume (compound solution and inoculum) was prepared with 40μl and accordingly for Mycobacterium smegmatis 20μl. The serial dilutions with Ciprofloxacin and Nystatin were prepared in special 384 well clear-transparent microtitration plate and were transferred in each 384 well microtitration plate before inoculation.” for “[table]”

[5] = test system: S. pneumoniae (DSMZ 11865); test: Broth microdilution IC50 determination, S. pneumoniae; type: cell-based; details: Streptococcus pneumoniae, DSMZ11865, assay mode Lum.
Source text: as §1, with “For” for “For Mycobacterium smegmatis a special 384 well white microtitration plate was used. For”, “The usual test concentrations range from 64 to 0.125μg/ml or 64 to 0.0001μg/ml for strong inhibition.” for “[table]”

[6] = test system: S. pyogenes (ATCC 12344); test: Broth microdilution IC50 determination, S. pyogenes; type: cell-based; details: Streptococcus pyogenes, ATCC12344, assay mode Abs. (590 nm), 20 h incubation
Protocol: as §1, with “The” for “A test which is based on determining the intracellular concentration of ATP is employed for measuring the bacterial viability. It relies on the fact that intact living bacteria have higher intra-cellular ATP levels than bacterial cells which are damaged by the action of antimicrobials. The formulation of the reagent supports bacterial cell lysis and ATP is quantified luminometrically by a luciferin/luciferase reaction. The”, “For” for “For Mycobacterium smegmatis a special 384 well white microtitration plate was used. For”, “[table] The usual test concentrations range from 64 to 0.125μg/ml or 64 to 0.0001μg/ml for strong inhibition. At the specification of the concentration the inoculation volume has to be considered. The whole test volume (compound solution and inoculum) was prepared with 40μl and accordingly for Mycobacterium smegmatis 20μl. The serial dilutions with Ciprofloxacin and Nystatin were prepared in special 384 well clear-transparent microtitration plate and were transferred in each 384 well microtitration plate before inoculation.” for “[table]”

SMILES | IC50 [1] [µg/mL] | IC50 [2] [µg/mL] | IC50 [3] [µg/mL] | IC50 [4] [µg/mL] | IC50 [5] [µg/mL] | IC50 [6] [µg/mL]
CC(C)CCCc1c(O)ccc2c1O[C@]1(C2=O)C(Cl)=C(Cl)C(=O)N1C [(III), Streptospirole B] | 0.26 (≈ 0.677 µM) | 0.05 (≈ 0.13 µM) | 0.02 (≈ 0.052 µM) | 0.59 (≈ 1.54 µM) | 0.34 (≈ 0.885 µM) | 0.12 (≈ 0.312 µM)
CC[C@H](C)CCCc1c(O)ccc2c1O[C@]1(C2=O)C(Cl)=C(Cl)C(=O)N1C [(IV), Streptospirole C] | 0.09 (≈ 0.226 µM) | 0.005 (≈ 0.0126 µM) | 0.003 (≈ 0.00753 µM) | 0.07 (≈ 0.176 µM) | 0.21 (≈ 0.527 µM) | 0.04 (≈ 0.1 µM)
CCCCCCc1c(O)ccc2c1O[C@]1(C2=O)C(Cl)=C(Cl)C(=O)N1C [(II), Streptospirole A] | 0.4 (≈ 1.04 µM) | 0.08 (≈ 0.208 µM) | 0.03 (≈ 0.0781 µM) | 0.87 (≈ 2.26 µM) | 0.28 (≈ 0.729 µM) | 0.28 (≈ 0.729 µM)
